Experimental findings from patent US20240261417A1, “SOS1 DEGRADING AGENT AND PREPARATION METHOD THEREFOR AND APPLICATION THEREOF” (SHANGHAI LEADINGTAC PHARMACEUTICAL CO. LTD., priority 2021, published 2024) are described below.

One experiment deals with T1, KRAS-G12C/SOS1 (Homo sapiens, UniProt Q07889).
T1 construct: purchased Cisbio 63ADKOOOCB16PEG
T1 sequence (Q07889 1-1333): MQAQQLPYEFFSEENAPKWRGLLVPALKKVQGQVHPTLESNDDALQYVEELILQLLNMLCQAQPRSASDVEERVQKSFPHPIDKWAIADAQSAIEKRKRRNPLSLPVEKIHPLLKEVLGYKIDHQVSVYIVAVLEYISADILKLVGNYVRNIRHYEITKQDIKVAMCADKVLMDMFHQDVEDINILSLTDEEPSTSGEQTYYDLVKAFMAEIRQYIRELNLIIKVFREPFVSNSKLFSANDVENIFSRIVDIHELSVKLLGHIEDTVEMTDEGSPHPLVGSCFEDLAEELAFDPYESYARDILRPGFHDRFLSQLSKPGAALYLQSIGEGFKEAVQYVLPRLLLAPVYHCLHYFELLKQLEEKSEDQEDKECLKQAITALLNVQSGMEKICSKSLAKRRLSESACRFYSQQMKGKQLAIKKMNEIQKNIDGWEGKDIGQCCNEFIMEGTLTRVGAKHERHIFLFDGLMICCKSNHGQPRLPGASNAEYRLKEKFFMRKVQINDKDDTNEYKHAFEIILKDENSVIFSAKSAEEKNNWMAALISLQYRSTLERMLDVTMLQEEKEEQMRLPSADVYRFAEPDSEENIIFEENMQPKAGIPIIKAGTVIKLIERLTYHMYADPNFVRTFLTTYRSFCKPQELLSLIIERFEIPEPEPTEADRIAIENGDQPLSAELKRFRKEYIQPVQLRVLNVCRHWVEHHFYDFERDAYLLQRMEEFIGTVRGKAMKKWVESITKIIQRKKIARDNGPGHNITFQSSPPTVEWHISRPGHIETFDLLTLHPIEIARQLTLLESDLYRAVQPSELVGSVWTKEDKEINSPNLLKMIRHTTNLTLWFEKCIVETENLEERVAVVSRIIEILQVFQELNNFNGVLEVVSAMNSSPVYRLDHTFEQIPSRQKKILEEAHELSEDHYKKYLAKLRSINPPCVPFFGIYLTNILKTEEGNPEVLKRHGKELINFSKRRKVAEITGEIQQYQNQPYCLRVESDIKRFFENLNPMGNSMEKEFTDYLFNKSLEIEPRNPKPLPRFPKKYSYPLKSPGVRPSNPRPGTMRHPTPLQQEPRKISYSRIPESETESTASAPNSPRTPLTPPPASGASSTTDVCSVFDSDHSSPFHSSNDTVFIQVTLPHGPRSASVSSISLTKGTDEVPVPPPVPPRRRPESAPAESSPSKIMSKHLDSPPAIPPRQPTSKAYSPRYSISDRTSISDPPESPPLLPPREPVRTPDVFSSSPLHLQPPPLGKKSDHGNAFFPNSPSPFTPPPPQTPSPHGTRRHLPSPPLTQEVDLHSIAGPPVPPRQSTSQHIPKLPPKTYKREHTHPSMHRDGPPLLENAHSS
In words: KRAS-G12C/SOS1 binding assay (HTRF). As to conditions: inhibition of KRAS-G12C/SOS1 binding. On the procedure: The following method was used to determine the extent of inhibition of KRAS-G12C/SOS1 binding by the preferred compounds of the present invention under in vitro conditions. In this method, the competitive inhibition of KRAS-G12C/SOS1 binding by the preferred compounds was assayed by the homogeneous time-resolved fluorescence (HTRF) technology using the KRAS-G12C/SOS1 binding assay kit (Cisbio, 63ADKOOOCB16PEG).
The experimental procedures were as follows (refer to the kit instructions for details): the compounds of the present invention were each firstly dissolved in DMSO at a concentration of 20 mM, and then diluted in an equal gradient with a buffer in the kit, so that the final concentrations of the test compounds in the reaction system were in a range of 10000 nM-0.04 nM, and the final concentration of DMSO was 0.5%. 2 μL of the compounds were each incubated with 4 μL of 1×Tag1-SOS1, 4 μL of 1×Tag2-KRAS-G12C (containing 10 μM guanosine triphosphate, GTP) at 25° C. for 15 min. Then 5 μL of 1× Anti-Tag1-Tb3+ and 5 μL of 1× Anti-Tag2-XL665 were added to the reaction system, and the mixture was incubated on ice for 3 h. After the incubation, the fluorescence intensity of each well was measured at the excitation wavelength of 337 nm, the fluorescence intensity of each well was read at the emission wavelengths of 620 nm and 665 nm on a microplate reader EnVision (PerkinElmer, 2105) in an HTRF mode, and the Ratio value was calculated by the formula Ratio=(665 nm/620 nm)×[…]. The inhibition rates of the compounds at each concentration were calculated by comparing the fluorescence intensity ratio with that of the control group, and then nonlinear curve fitting was performed by GraphPad Prism 8 in the logarithmic concentration-inhibition rate to obtain the IC50 values of the compounds, as shown in Table 1.
Background: TR-FRET usually uses a lanthanide donor and a delayed reading to cut background.

A further experiment concerns the target T2, SOS1 protein (Homo sapiens, UniProt Q07889).
T2 sequence (Q07889 1-1333): T1 sequence (Q07889 1-1333)
In words: SOS1 degradation assay (Western blot), NCI-H358 cells. The experiment is classed as cell-based. Set-up: The degradation of SOS1 by the compounds was investigated on KRAS G12C mutant human non-small cell lung cancer cells NCI-H358; host or cells: NCI-H358 (human cancer cell lines). Particulars: SOS1 degradation, NCI-H358 cells, 24 h, Western blot; for DC50: read-out: NCI-H358 (G12C) DC50; for Dmax: read-out: NCI-H358 (G12C) Dmax. Put shortly: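 Cells at 5×10^5 per well were treated for 24 h at 37 °C with compound at 0.03–3000 nM final. SOS1 in lysates was measured by Western blot with chemiluminescent densitometry and normalised to the control group. DC50 and Dmax came from nonlinear fits against log concentration.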
Background: Immunoblotting shows a protein as a band on a membrane.

The structures appear in SMILES notation. pIC50: −log10 of the molar value. Some results are limits rather than exact numbers.

A word on the pIC50: it is −log10 of the IC50, conventionally taken in molar units. Lower therefore signals a large IC50. Usually DC50 stands for the concentration at which degradation of the target reaches its halfway point. Broadly, the Dmax is the largest share of the target that was removed. Turning to `COc1cc2nc(C)nc(N[C@H](C)c3cc(N)cc(C(F)(F)F)c3)c2cc1C1=CCC(C(=O)N2CCC(CCOCC3CCN(C(=O)c4ccc(Cl)c(N5CCC(=O)NC5=O)c4)CC3)CC2)CC1` (stereo partly drawn) [Example 64, 1-(5-(4-((2-(1-(4-(4-(((R)-1-(3-amino-5-(trifluoromethyl)phenyl)ethyl)amino)-7-methoxy-2-methylquinazolin-6-yl)cyclohex-3-ene-1-carbonyl)piperidin-4-yl)ethoxy)methyl)piperidine-1-carbonyl)-2-chlorophenyl)dihydropyrimidine-2,4(1H,3H)-dione], the pIC50 on KRAS-G12C/SOS1 is ≥ 7.82. Besides, at SOS1 protein, the DC50 is < 50 nM and the Dmax was in the range of 50 to 80%.
On the same counts, the results for `COc1cc2nc(C)nc(N[C@H](C)c3cc(N)cc(C(F)(F)F)c3)c2cc1[C@H]1CC[C@H](C(=O)N2CCN(CCCOC3CCN(C(=O)c4ccc(Cl)c(N5CCC(=O)NC5=O)c4)CC3)CC2)CC1` [Example 28, 1-(5-(4-(3-(4-((1R,4R)-4-(4-(((R)-1-(3-amino-5-(trifluoromethyl)phenyl)ethyl)amino)-7-methoxy-2-methylquinazolin-6-yl)cyclohexane-1-carbonyl)piperazin-1-yl)propoxy)piperidine-1-carbonyl)-2-chlorophenyl)dihydropyrimidine-2,4(1H,3H)-dione] are ≥ 7.82, < 50 nM and 50 to 80%.
On the same counts, the results for `CNCc1ccccc1-c1csc([C@@H](C)Nc2nc(C)nc3cc(OC)c([C@H]4CC[C@H](C(=O)N5CCN(CCC6CCC7(CC6)CCN(C(=O)c6ccc(Cl)c(N8CCC(=O)NC8=O)c6)CC7)CC5)CC4)cc23)c1` [Example 50] are ≥ 7.82, < 50 nM and 80 to 100%.
As to `COc1cc2nc(C)nc(N[C@H](C)c3cc(-c4c(Cl)cccc4CN(C)C)cs3)c2cc1[C@H]1CC[C@H](C(=O)N2CCC(OCCCC3CCN(C(=O)c4ccc(Cl)c(N5CCC(=O)NC5=O)c4)CC3)CC2)CC1` [Example 61, 1-(2-chloro-5-(4-(3-((1-((1R,4R)-4-(4-(((R)-1-(4-(2-chloro-6-((dimethylamino)methyl)phenyl)thien-2-yl)ethyl)amino)-7-methoxy-2-methylquinazolin-6-yl)cyclohexane-1-carbonyl)piperidin-4-yl)oxy)propyl)piperidine-1-carbonyl)phenyl)dihydropyrimidine-2,4(1H,3H)-dione], the pIC50 on KRAS-G12C/SOS1 was ≥ 7.82. On SOS1 protein, the DC50 was in the range of 100 to 500 nM and the Dmax lay in the range of 50 to 80%.
On the same counts, the results for `COc1cc2nc(C)nc(N[C@H](C)c3cc(-c4c(Cl)cccc4CN(C)C)cs3)c2cc1[C@H]1CC[C@H](C(=O)N2CCN(CCCCC3CCN(C(=O)c4ccc(Cl)c(N5CCC(=O)NC5=O)c4)CC3)CC2)CC1` [Example 71, 1-(2-chloro-5-(4-(4-(4-((1R,4R)-4-(4-(((R)-1-(4-(2-chloro-6-((dimethylamino)methyl)phenyl)thien-2-yl)ethyl)amino)-7-methoxy-2-methylquinazolin-6-yl)cyclohexane-1-carbonyl)piperazin-1-yl)butyl)piperidine-1-carbonyl)phenyl)dihydropyrimidine-2,4(1H,3H)-dione] are ≥ 7.82, < 50 nM and 80 to 100%.
As for `COc1cc2nc(C)nc(N[C@H](C)c3cc(-c4c(Cl)cccc4CN(C)C)cs3)c2cc1[C@H]1CC[C@H](C(=O)N2CCC(CCOCC3CCN(C(=O)c4ccc(C(F)(F)F)c(N5CCC(=O)NC5=O)c4)CC3)CC2)CC1` [Example 57, 1-(5-(4-((2-(1-((1R,4R)-4-(4-(((R)-1-(4-(2-chloro-6-((dimethylamino)methyl)phenyl)thien-2-yl)ethyl)amino)-7-methoxy-2-methylquinazolin-6-yl)cyclohexane-1-carbonyl)piperidin-4-yl)ethoxy)methyl)piperidine-1-carbonyl)-2-(trifluoromethyl)phenyl)dihydropyrimidine-2,4(1H,3H)-dione], on KRAS-G12C/SOS1, the pIC50 was ≥ 7.82. Further, at SOS1 protein, the DC50 was < 50 nM.
Consider `Cc1nc(N[C@H](C)c2cc(N)cc(C(F)(F)F)c2)c2cc([C@H]3CC[C@H](C(=O)N4CCN(CC5CCC6(CC5)CCN(C(=O)c5ccc(Cl)c(N7CCC(=O)NC7=O)c5)CC6)CC4)CC3)c(C)cc2n1` [Example 72, 1-(5-(9-((4-((1R,4R)-4-(4-(((R)-1-(3-amino-5-(trifluoromethyl)phenyl)ethyl)amino)-2,7-dimethylquinazolin-6-yl)cyclohexane-1-carbonyl)piperazin-1-yl)methyl)-3-azaspiro[5.5]undecane-3-carbonyl)-2-chlorophenyl)dihydropyrimidine-2,4(1H,3H)-dione], for which, at KRAS-G12C/SOS1, the pIC50 is ≥ 7.82. For the same compound, at SOS1 protein, the DC50 is < 50 nM and the Dmax lay within 50 to 80%.
As to `COc1cc2nc(C)nc(N[C@H](C)c3cc(N)cc(C(F)(F)F)c3)c2cc1C1=CCC(C(=O)N2CCN(CC3CCC4(CC3)CCN(C(=O)c3ccc(Cl)c(N5CCC(=O)NC5=O)c3)CC4)CC2)CC1` (stereo partly drawn) [Example 51, 1-(5-(9-((4-(4-(4-(((R)-1-(3-amino-5-(trifluoromethyl)phenyl)ethyl)amino)-7-methoxy-2-methylquinazolin-6-yl)cyclohex-3-ene-1-carbonyl)piperazin-1-yl)methyl)-3-azaspiro[5.5]undecane-3-carbonyl)-2-chlorophenyl)dihydropyrimidine-2,4(1H,3H)-dione], the pIC50 at KRAS-G12C/SOS1 was ≥ 7.82. On SOS1 protein, the DC50 is < 50 nM and the Dmax was 80 to 100%.
For `COc1cc2nc(C)nc(N[C@H](C)c3cc(N)cc(C(F)(F)F)c3)c2cc1[C@H]1CC[C@H](C(=O)N2CCC(CCOCC3CCN(C(=O)c4ccc(F)c(N5CCC(=O)NC5=O)c4)CC3)CC2)CC1` [Example 44, 1-(5-(4-((2-(1-((1R,4R)-4-(4-(((R)-1-(3-amino-5-(trifluoromethyl)phenyl)ethyl)amino)-7-methoxy-2-methylquinazolin-6-yl)cyclohexane-1-carbonyl)piperidin-4-yl)ethoxy)methyl)piperidine-1-carbonyl)-2-fluorophenyl)dihydropyrimidine-2,4(1H,3H)-dione], at KRAS-G12C/SOS1, the pIC50 is ≥ 7.82. Further, at SOS1 protein, the DC50 is < 50 nM.
